Assay: Evaluation of conversion rate to active form in buffer solution (Experimental Example 1)
Type: physicochemical
Conditions: for Production rate of Alvocidib / Residual rate: 37° C., 25 umol/L in buffer solution; for Stability in buffer solution at pH 5: pH 5, 37° C., up to 2 or 3 hours; for Conversion to Alvocidib at pH 7.4: pH 7.4, 37° C., up to 3 hours
Outline: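 Compounds at 25 umol/L were held at 37 °C in 50 mM citrate (pH 5.0, 5.5) or phosphate (pH 6.0–7.4) buffers. Remaining compound and Alvocidib formed were quantified by HPLC at 0, 0.5, 1, 2 and 3 h.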

For `CN1CC[C@H](c2c(OC(=O)N(Cc3ccccc3)CC3CCCCN3)cc(O)c3c(=O)cc(-c4ccccc4Cl)oc23)[C@H](O)C1` (stereo partly drawn) [Example 15, 2-(2-chlorophenyl)-5-hydroxy-8-[(3S,4R)-3-hydroxy-1-methylpiperidin-4-yl]-4-oxo-4H-1-benzopyran-7-yl benzyl [(piperidin-2-yl)methyl]carbamate], which “Production rate of Alvocidib” value (pH5.0, 0 hr) is on record?
Its value is 1.4%.

What about the Residual rate (pH5.0, 0 hr) of the same compound?
Its Residual rate is 95.6%.

What about the “Stability in buffer solution at pH 5” value of the same compound?
The value was “stable”.

And the “Production rate of Alvocidib” value (pH5.0, 0.5 hr)?
Its value is 1.9%.

What about the Residual rate (pH5.0, 0.5 hr) of the same compound?
Its Residual rate is 95.2%.

And the “Production rate of Alvocidib” value (pH5.0, 1 hr)?
The value was 2.6%.

And the Residual rate (pH5.0, 1 hr)?
The Residual rate was 94.7%.

And the “Production rate of Alvocidib” value (pH5.0, 2 hr)?
The value was 3.8%.

And the Residual rate (pH5.0, 2 hr)?
The Residual rate was 93.5%.

What about the “Production rate of Alvocidib” value (pH5.0, 3 hr) of the same compound?
Its value is 4.6%.

And the Residual rate (pH5.0, 3 hr)?
The Residual rate was 92.5%.

And the “Production rate of Alvocidib” value (pH5.5, 0 hr)?
Its value is 1.4%.

What about the Residual rate (pH5.5, 0 hr) of the same compound?
Its Residual rate is 95.6%.

And the “Production rate of Alvocidib” value (pH5.5, 0.5 hr)?
Its value is 2.8%.

What about the Residual rate (pH5.5, 0.5 hr) of the same compound?
Its Residual rate is 94.2%.

What about the “Production rate of Alvocidib” value (pH5.5, 1 hr) of the same compound?
The value was 4.5%.

What about the Residual rate (pH5.5, 1 hr) of the same compound?
The Residual rate was 92.7%.

And the “Production rate of Alvocidib” value (pH5.5, 2 hr)?
The value was 7.8%.

What about the Residual rate (pH5.5, 2 hr) of the same compound?
The Residual rate was 89.5%.

And the “Production rate of Alvocidib” value (pH5.5, 3 hr)?
Its value is 9.5%.

And the Residual rate (pH5.5, 3 hr)?
Its Residual rate is 87.8%.

And the “Production rate of Alvocidib” value (pH6.0, 0 hr)?
The value was 1.5%.

And the Residual rate (pH6.0, 0 hr)?
Its Residual rate is 95.5%.

What about the “Production rate of Alvocidib” value (pH6.0, 0.5 hr) of the same compound?
The value was 6.2%.

And the Residual rate (pH6.0, 0.5 hr)?
Its Residual rate is 91.0%.

What about the “Production rate of Alvocidib” value (pH6.0, 1 hr) of the same compound?
Its value is 12.4%.

What about the Residual rate (pH6.0, 1 hr) of the same compound?
The Residual rate was 84.7%.

What about the “Production rate of Alvocidib” value (pH6.0, 2 hr) of the same compound?
Its value is 22.3%.

What about the Residual rate (pH6.0, 2 hr) of the same compound?
The Residual rate was 62.8%.

What about the “Production rate of Alvocidib” value (pH6.0, 3 hr) of the same compound?
The value was 25.7%.

What about the Residual rate (pH6.0, 3 hr) of the same compound?
The Residual rate was 56.7%.

What about the “Production rate of Alvocidib” value (pH6.5, 0 hr) of the same compound?
Its value is 1.9%.

What about the Residual rate (pH6.5, 0 hr) of the same compound?
The Residual rate was 94.8%.

And the “Production rate of Alvocidib” value (pH6.5, 0.5 hr)?
The value was 15.1%.

And the Residual rate (pH6.5, 0.5 hr)?
The Residual rate was 82.2%.

What about the “Production rate of Alvocidib” value (pH6.5, 1 hr) of the same compound?
Its value is 26.1%.

And the Residual rate (pH6.5, 1 hr)?
Its Residual rate is 56.3%.

And the “Production rate of Alvocidib” value (pH6.5, 2 hr)?
The value was 44.6%.

What about the Residual rate (pH6.5, 2 hr) of the same compound?
The Residual rate was 32.9%.

What about the “Production rate of Alvocidib” value (pH6.5, 3 hr) of the same compound?
The value was 52.4%.

What about the Residual rate (pH6.5, 3 hr) of the same compound?
Its Residual rate is 24.3%.

What about the “Production rate of Alvocidib” value (pH7.0, 0 hr) of the same compound?
Its value is 2.8%.

And the Residual rate (pH7.0, 0 hr)?
The Residual rate was 94.1%.

What about the “Production rate of Alvocidib” value (pH7.0, 0.5 hr) of the same compound?
Its value is 40.7%.

What about the Residual rate (pH7.0, 0.5 hr) of the same compound?
Its Residual rate is 38.5%.

What about the “Production rate of Alvocidib” value (pH7.0, 1 hr) of the same compound?
The value was 56.9%.

And the Residual rate (pH7.0, 1 hr)?
The Residual rate was 7.1%.

What about the “Production rate of Alvocidib” value (pH7.0, 2 hr) of the same compound?
The value was 69.8%.

And the Residual rate (pH7.0, 2 hr)?
Its Residual rate is 3.8%.

What about the “Production rate of Alvocidib” value (pH7.0, 3 hr) of the same compound?
The value was 69.9%.

And the Residual rate (pH7.0, 3 hr)?
Its Residual rate is 3.9%.

What about the “Production rate of Alvocidib” value (pH7.4, 0 hr) of the same compound?
The value was 4.8%.

And the Residual rate (pH7.4, 0 hr)?
Its Residual rate is 92.2%.

And the “Conversion to Alvocidib at pH 7.4” value?
Its value is “rapidly converted to Alvocidib”.

And the “Production rate of Alvocidib” value (pH7.4, 0.5 hr)?
Its value is 54.7%.

And the Residual rate (pH7.4, 0.5 hr)?
The Residual rate was 21.1%.

And the “Production rate of Alvocidib” value (pH7.4, 1 hr)?
Its value is 67.3%.

What about the Residual rate (pH7.4, 1 hr) of the same compound?
Its Residual rate is 8.0%.

What about the “Production rate of Alvocidib” value (pH7.4, 2 hr) of the same compound?
The value was 75.2%.

What about the Residual rate (pH7.4, 2 hr) of the same compound?
Its Residual rate is 3.1%.

What about the “Production rate of Alvocidib” value (pH7.4, 3 hr) of the same compound?
The value was 77.2%.

And the Residual rate (pH7.4, 3 hr)?
Its Residual rate is 2.9%.

What does the source list for `CCN(CCC1CCCCN1)C(=O)Oc1cc(O)c2c(=O)cc(-c3ccccc3Cl)oc2c1[C@H]1CCN(C)C[C@H]1O` (stereo partly drawn) [Example 16, 2-(2-chlorophenyl)-5-hydroxy-8-[(3S,4R)-3-hydroxy-1-methylpiperidin-4-yl]-4-oxo-4H-1-benzopyran-7-yl ethyl[2-(piperidin-2-yl)ethyl]carbamate]?
Production rate of Alvocidib (pH5.0, 0 hr): 0.0%; Residual rate (pH5.0, 0 hr): 84.3%; Stability in buffer solution at pH 5: stable; Production rate of Alvocidib (pH5.0, 0.5 hr): 0.0%; Residual rate (pH5.0, 0.5 hr): 84.9%; Production rate of Alvocidib (pH5.0, 1 hr): 0.0%; Residual rate (pH5.0, 1 hr): 86.4%; Production rate of Alvocidib (pH5.0, 2 hr): 0.0%; Residual rate (pH5.0, 2 hr): 86.1%; Production rate of Alvocidib (pH5.0, 3 hr): 0.0%; Residual rate (pH5.0, 3 hr): 86.1%; Production rate of Alvocidib (pH5.5, 0 hr): 0.0%; Residual rate (pH5.5, 0 hr): 84.9%; Production rate of Alvocidib (pH5.5, 0.5 hr): 0.0%; Residual rate (pH5.5, 0.5 hr): 85.8%; Production rate of Alvocidib (pH5.5, 1 hr): 0.0%; Residual rate (pH5.5, 1 hr): 86.3%; Production rate of Alvocidib (pH5.5, 2 hr): 0.0%; Residual rate (pH5.5, 2 hr): 85.7%; Production rate of Alvocidib (pH5.5, 3 hr): 0.0%; Residual rate (pH5.5, 3 hr): 86.6%; Production rate of Alvocidib (pH6.0, 0 hr): 0.0%; Residual rate (pH6.0, 0 hr): 85.3%; Production rate of Alvocidib (pH6.0, 0.5 hr): 0.0%; Residual rate (pH6.0, 0.5 hr): 84.3%; Production rate of Alvocidib (pH6.0, 1 hr): 12.8%; Residual rate (pH6.0, 1 hr): 71.7%; Production rate of Alvocidib (pH6.0, 2 hr): 21.6%; Residual rate (pH6.0, 2 hr): 63.0%; Production rate of Alvocidib (pH6.0, 3 hr): 29.3%; Residual rate (pH6.0, 3 hr): 55.6%; Production rate of Alvocidib (pH6.5, 0 hr): 0.0%; Residual rate (pH6.5, 0 hr): 86.0%; Production rate of Alvocidib (pH6.5, 0.5 hr): 16.4%; Residual rate (pH6.5, 0.5 hr): 67.6%; Production rate of Alvocidib (pH6.5, 1 hr): 25.3%; Residual rate (pH6.5, 1 hr): 61.4%; Production rate of Alvocidib (pH6.5, 2 hr): 47.1%; Residual rate (pH6.5, 2 hr): 37.4%; Production rate of Alvocidib (pH6.5, 3 hr): 51.5%; Residual rate (pH6.5, 3 hr): 34.9%; Production rate of Alvocidib (pH7.0, 0 hr): 0.0%; Residual rate (pH7.0, 0 hr): 86.2%; Production rate of Alvocidib (pH7.0, 0.5 hr): 30.5%; Residual rate (pH7.0, 0.5 hr): 54.8%; Production rate of Alvocidib (pH7.0, 1 hr): 50.2%; Residual rate (pH7.0, 1 hr): 35.7%; Production rate of Alvocidib (pH7.0, 2 hr): 68.6%; Residual rate (pH7.0, 2 hr): 16.9%; Production rate of Alvocidib (pH7.0, 3 hr): 78.2%; Residual rate (pH7.0, 3 hr): 7.7%; Production rate of Alvocidib (pH7.4, 0 hr): 0.9%; Residual rate (pH7.4, 0 hr): 85.3%; Conversion to Alvocidib at pH 7.4: rapidly converted to Alvocidib; Production rate of Alvocidib (pH7.4, 0.5 hr): 59.0%; Residual rate (pH7.4, 0.5 hr): 23.2%; Production rate of Alvocidib (pH7.4, 1 hr): 77.8%; Residual rate (pH7.4, 1 hr): 5.9%; Production rate of Alvocidib (pH7.4, 2 hr): 82.1%; Residual rate (pH7.4, 2 hr): 2.2%; Production rate of Alvocidib (pH7.4, 3 hr): 85.8%; Residual rate (pH7.4, 3 hr): 0.0%

— patent US12617779B2, “Self degradation-type CDK9 inhibitor prodrug and liposome encapsulating same” (Sumitomo Pharma Co., Ltd., priority 2021, dated 2026)
